Experimental findings from publication PMC8286840, “Identifying SARS-CoV-2 antiviral compounds by screening for small molecule inhibitors of Nsp3 papain-like protease” (Biochemical Journal, 2021) are described below.

Structures can show the parent of a compound that is named as a salt. Where two headings read alike, the source gives them in different places. Where a SMILES comes first, the peptide text is derived from it.

The target in assay [1] is T1, SARS-CoV-2 PLpro (nsp3 1564–1878) (Severe acute respiratory syndrome coronavirus 2, UniProt P0DTD1). The experiment in a line: biochemical. Further details: FRET-quenched peptide (Pro3) cleavage by PLpro, 10 min pre-incubation, slope over 20 min, normalised to no-compound control. The conditions noted are these: read-out: % of control remaining.
In assay [2] the target is T1, SARS-CoV-2 PLpro (nsp3 1564–1878). The experiment in a line: biochemical. The arrangement: FRET-quenched peptide (Pro3) cleavage by PLpro, 10 min pre-incubation, slope over 20 min, normalised to no-compound control. The conditions noted are these: read-out: % of control remaining. The source holds these as a separate data set.

Turning to `O=c1c2ccccc2[nH]c(=S)n1CCN1CCC(=C(c2ccc(F)cc2)c2ccc(F)cc2)CC1` [Diacylglycerol Kinase Inhibitor II], the remaining activity at 1.25 µM in assay [1] (Well no.=597, low concentration screen) was 93.5%; in assay [1] (Well no.=2369, low concentration screen) it was 98.2%. In addition, the remaining activity at 3.75 µM in assay [2] (Well no.=597, high concentration screen) was 95.5%; in assay [2] (Well no.=2369, high concentration screen), 99.1%.
For the molecule `CCCNC(=O)NS(=O)(=O)c1ccc(Cl)cc1` [Chlorpropamide], in assay [1] (Well no.=331, low concentration screen), the remaining activity at 1.25 µM is 96.9%. The remaining activity at 3.75 µM in assay [2] (Well no.=331, high concentration screen) came out at 97.8%.
`CC(=O)Nc1nnc(S(N)(=O)=O)s1` [Acetazolamide]: the remaining activity at 1.25 µM in assay [1] (Well no.=163, low concentration screen) was determined as 101%. Also, the remaining activity at 3.75 µM in assay [2] (Well no.=163, high concentration screen) is 103%.
`C[C@]12CC[C@H](O)C[C@@H]1CC[C@@H]1[C@@H]2CC[C@]2(C)C(=O)CC[C@@H]12` [Epiandrosterone]: the remaining activity at 1.25 µM in assay [1] (Well no.=6441, low concentration screen) is 103%. Moreover, the remaining activity at 3.75 µM in assay [2] (Well no.=6441, high concentration screen) was 103%.
As to `CCCCCCCCCCCCC(=O)N1CCCCC1CNC(=O)[C@@H](N)CCCCN` (stereo partly drawn) [NPC-15437 dihydrochloride], the remaining activity at 1.25 µM in assay [1] (Well no.=1132, low concentration screen) was 94%. Besides, the remaining activity at 3.75 µM in assay [2] (Well no.=1132, high concentration screen) worked out at 95.6%.
As to `CCS(=O)(=O)Nc1ccc2c(c1)/C(=C(/Nc1ccc(CN3CCCCC3)cc1)c1ccccc1)C(=O)N2` [Hesperadin], the remaining activity at 1.25 µM in assay [1] (Well no.=5262, low concentration screen) was found to be 99.1%. Further, the remaining activity at 3.75 µM in assay [2] (Well no.=5262, high concentration screen) turned out to be 88.4%.
Take `N#C/C(=C\c1ccc(O)c(O)c1)C(=O)c1ccc(O)c(O)c1` [Tyrphostin AG 538]: the remaining activity at 1.25 µM in assay [1] (Well no.=1468, low concentration screen) turned out to be 93.5%. The remaining activity at 3.75 µM in assay [2] (Well no.=1468, high concentration screen) was 92.4%.
Turning to `O=C(Nc1ccccc1)N1CCN(c2nc(-c3ccccc3)ns2)CC1` [JNJ 1661010], in assay [1] (Well no.=5167, low concentration screen), the remaining activity at 1.25 µM was found to be 98.1%. In addition, in assay [2] (Well no.=5167, high concentration screen), the remaining activity at 3.75 µM is 104%.
As to `CCS(=O)(=O)CCn1c([N+](=O)[O-])cnc1C` [Tinidazole], in assay [1] (Well no.=1958, low concentration screen), the remaining activity at 1.25 µM is 93%. The remaining activity at 3.75 µM in assay [2] (Well no.=1958, high concentration screen) worked out at 94.1%.
As for `C[C@H]1CCCC(=O)CCC/C=C/c2cc(O)cc(O)c2C(=O)O1` [Zearalenone], the remaining activity at 1.25 µM in assay [1] (Well no.=3148, low concentration screen) worked out at 97.2%. The remaining activity at 3.75 µM in assay [2] (Well no.=3148, high concentration screen) turned out to be 97.8%.
For `O=C(c1ccccc1)c1ccc(N2CCOCC2)cc1O` [DNA-PK Inhibitor V], the remaining activity at 1.25 µM in assay [1] (Well no.=2657, low concentration screen) is 95.5%. For the same molecule, the remaining activity at 3.75 µM in assay [2] (Well no.=2657, high concentration screen) came to 101%.
Consider `Cc1cc(N2CCN([C@@H]3CN[C@H](C(=O)N4CCSC4)C3)CC2)n(-c2ccccc2)n1` [Teneligliptin hydrobromide], for which the remaining activity at 1.25 µM in assay [1] (Well no.=8110, low concentration screen) came to 107%. Besides, the remaining activity at 3.75 µM in assay [2] (Well no.=8110, high concentration screen) amounted to 106%.
Turning to `COc1cccc(NC(=O)/C=C/c2ccc(Cl)cc2)c1` [SB-366791], the remaining activity at 1.25 µM in assay [1] (Well no.=1260, low concentration screen) was 104%. Moreover, the remaining activity at 3.75 µM in assay [2] (Well no.=1260, high concentration screen) was 103%.
With `NC(N)=NCCC[C@H](N)C(=O)NCC(=O)N[C@@H](CCC(=O)O)C(=O)N[C@@H](CO)C(=O)O` [Arg-Gly-Glu-Ser(TFA)] (H-RGES-OH), the remaining activity at 1.25 µM in assay [1] (Well no.=7924, low concentration screen) was found to be 96.4%. For the same molecule, the remaining activity at 3.75 µM in assay [2] (Well no.=7924, high concentration screen) was 97.3%.
Regarding `CCCCC/C=C\C/C=C\C/C=C\C=C\C1CCCC(=O)O1` (racemic), the remaining activity at 1.25 µM in assay [1] (Well no.=4277, low concentration screen) turned out to be 105%. Besides, the remaining activity at 3.75 µM in assay [2] (Well no.=4277, high concentration screen) amounted to 102%.
In the case of `CCn1cc(C(=O)O)c(=O)c2ccc(Cc3ccccc3)nc21` [Amfonelic acid], the remaining activity at 1.25 µM in assay [1] (Well no.=446, low concentration screen) was 98.4%. The remaining activity at 3.75 µM in assay [2] (Well no.=446, high concentration screen) stood at 98.5%.
Consider `N#Cc1cc(CN2CCC(Nc3ncnc4sc(Cl)cc34)CC2)ccc1F` [PRX-08066], for which the remaining activity at 1.25 µM in assay [1] (Well no.=4792, low concentration screen) is 101%. Moreover, the remaining activity at 3.75 µM in assay [2] (Well no.=4792, high concentration screen) is 97.9%.
With `N/C(=N\C(=O)c1nc(Cl)c(N)nc1N)NCc1ccccc1` [Benzamil], the remaining activity at 1.25 µM in assay [1] (Well no.=2050, low concentration screen) was 104%. In addition, the remaining activity at 3.75 µM in assay [2] (Well no.=2050, high concentration screen) came out at 104%.
`C[C@]12Cc3c[nH]nc3C[C@@H]1CC[C@@H]1[C@@H]2CC[C@@]2(C)[C@H]1CC[C@]2(C)O` [Stanozolol]: the remaining activity at 1.25 µM in assay [1] stood at 94%. Moreover, the remaining activity at 3.75 µM in assay [2] was found to be 95.3%.
For the molecule `O=C1c2ccccc2-n2c1nc1ccccc1c2=O` [Tryptanthrin], the remaining activity at 1.25 µM in assay [1] (Well no.=3376, low concentration screen) is 96.9%. Moreover, the remaining activity at 3.75 µM in assay [2] (Well no.=3376, high concentration screen) came out at 100%.
Take `Nc1ncnc2c1ncn2[C@@H]1O[C@H](COP(=O)(O)CP(=O)(O)OP(=O)(O)O)[C@@H](O)[C@H]1O` [alpha,beta-Methylene adenosine 5'-triphosphate dilithium]: in assay [1] (Well no.=932, low concentration screen), the remaining activity at 1.25 µM was found to be 101%. The remaining activity at 3.75 µM in assay [2] (Well no.=932, high concentration screen) was determined as 98.2%.
Consider `CCCN(CCC)CC1CCCCN1CCNC(=O)N1c2ccccc2C(=O)Nc2cccnc21` (stereo not drawn) [N-(2-{2-[(dipropylamino)methyl]-1-piperidinyl}ethyl)-6-oxo-5,6-dihydro-11H-pyrido[2,3-b][1,4]benzodiazepine-11-carboxamide], for which, in assay [1] (Well no.=5609, low concentration screen), the remaining activity at 1.25 µM was determined as 101%. In assay [2] (Well no.=5609, high concentration screen), the remaining activity at 3.75 µM is 101%.
As to `CC[C@H](C)[C@H](NC(=O)[C@H](Cc1ccc(O)cc1)NC(=O)[C@@H](NC(=O)[C@H](CCCNC(=N)N)NC(=O)[C@@H](N)CC(=O)O)C(C)C)C(=O)N[C@@H](Cc1cnc[nH]1)C(=O)N1CCC[C@H]1C(=O)N[C@@H](Cc1ccccc1)C(=O)O` [Angiotensin II human], the remaining activity at 1.25 µM in assay [1] (Well no.=8345, low concentration screen) was 93.9%. For the same molecule, the remaining activity at 3.75 µM in assay [2] (Well no.=8345, high concentration screen) was determined as 97.1%.
As to `N#C/C(=C\c1ccc(O)c(O)c1)C(N)=S` [Tyrphostin 47], the remaining activity at 1.25 µM in assay [1] (Well no.=1276, low concentration screen) came out at 97.8%. Further, in assay [2] (Well no.=1276, high concentration screen), the remaining activity at 3.75 µM was 99.6%.
Consider `CC(C)C[C@@H](C(=O)N[C@H](C(=O)OC1CCCC1)c1ccccc1)[C@H](O)C(=O)NO` [Tosedostat (CHR2797)], for which the remaining activity at 1.25 µM in assay [1] (Well no.=4880, low concentration screen) was determined as 93.4%. Also, the remaining activity at 3.75 µM in assay [2] (Well no.=4880, high concentration screen) is 88.9%.
As to `O=C(Nc1ncc(-c2cc(C(F)F)nn2-c2c(Cl)cccc2Cl)s1)C1CC1` [BMS-3], in assay [1] (Well no.=3039, low concentration screen), the remaining activity at 1.25 µM is 95.8%. Also, the remaining activity at 3.75 µM in assay [2] (Well no.=3039, high concentration screen) is 96.4%.
`O=C(O)/C=C\C(=O)O` [Maleic Acid]: the remaining activity at 1.25 µM in assay [1] (Well no.=6593, low concentration screen) was determined as 100%. The remaining activity at 3.75 µM in assay [2] (Well no.=6593, high concentration screen) stood at 101%.
Take `Cc1cccc(NC(=O)Nc2ccc(-c3csc4ncnc(N)c34)cc2)c1` [GDP366]: in assay [1] (Well no.=6976, low concentration screen), the remaining activity at 1.25 µM is 101%. The remaining activity at 3.75 µM in assay [2] (Well no.=6976, high concentration screen) stood at 99.1%.
In the case of `CC(C)C[C@H](NP(=O)(O)O[C@@H]1O[C@@H](C)[C@H](O)[C@@H](O)[C@H]1O)C(=O)N[C@@H](Cc1c[nH]c2ccccc12)C(=O)O` [Phosphoramidon disodium], the remaining activity at 1.25 µM in assay [1] (Well no.=1398, low concentration screen) was found to be 99.4%. Moreover, in assay [2] (Well no.=1398, high concentration screen), the remaining activity at 3.75 µM came out at 100%.
As for `C[C@H]1[C@H](C)CC[C@]2(C(=O)O)CC[C@]3(C)C(=CC[C@@H]4[C@@]5(C)CC[C@H](O)C(C)(C)[C@@H]5CC[C@]43C)[C@H]12` [Ursolic acid], the remaining activity at 1.25 µM in assay [1] (Well no.=3585, low concentration screen) came out at 107%. In assay [2] (Well no.=3585, high concentration screen), the remaining activity at 3.75 µM stood at 113%.
`NCC1(CC(=O)O)CCCCC1` [Gabapentin]: the remaining activity at 1.25 µM in assay [1] (Well no.=510, low concentration screen) was found to be 104%; in assay [1] (Well no.=1755, low concentration screen), 98.1%. Also, the remaining activity at 3.75 µM is 105% in assay [2] (Well no.=510, high concentration screen) and 100% in assay [2] (Well no.=1755, high concentration screen).
